In ChEMBL document CHEMBL5506058, “Discovery of Quinazoline and Quinoline-Based Small Molecules as Utrophin Upregulators via AhR Antagonism for the Treatment of Duchenne Muscular Dystrophy” (J Med Chem, 2024):

Experiments:
C2C12 = test: Cytotoxicity against mouse C2C12 cells assessed as reduction in cell viability at 0.78 to 100 uM measured after 24 hrs by MTT assay; assay type: toxicity, cell-based; details: c2c12, 24 h, dose 0.78-100 µM
[1] = Upregulation of utrophin expression in mouse C2C12 cells assessed as fold increase at 800 nM measured after 72 hrs by In-cell ELISA method; assay type: functional

Row | SMILES | Activity (C2C12) | fold change (FC) [1]
1 | CCS(=O)(=O)c1ccc2nc(NCCc3cc4ccccc4[nH]3)ccc2c1 | Toxic | 1.3
2 | CS(=O)(=O)c1ccc2nc(Nc3ccc(O)cc3)ncc2c1 | Toxic | 1.06
3 | CS(=O)(=O)c1ccc2nc(NCc3ccc4c(c3)OCO4)ncc2c1 | Toxic | 0.92
4 | CS(=O)(=O)c1ccc2nc(Nc3ccc(F)cc3)ccc2c1 | Toxic | 0.93
5 | CS(=O)(=O)c1ccc2nc(NCCc3cc4ccccc4[nH]3)ccc2c1 | Toxic | 1.78
6 | CS(=O)(=O)c1ccc2nc(Nc3ccc4c(c3)OCO4)ccc2c1 | Toxic | 1
7 | CC(C)(C)c1ccc(Nc2ccc3cc(S(C)(=O)=O)ccc3n2)cc1 | Toxic | 0.61
8 | CS(=O)(=O)c1ccc2nc(Nc3ccc4c(c3)OCO4)ncc2c1 | Toxic | 0.92
9 | CC(C)(C)c1ccc(Nc2ncc3cc(S(C)(=O)=O)ccc3n2)cc1 | Toxic | 1.01
10 | CS(=O)(=O)c1ccc2nc(NCc3ccc(F)cc3)ccc2c1 | Toxic | 1
11 | CCS(=O)(=O)c1ccc2nc(NCc3ccc4c(c3)OCO4)ncc2c1 | Toxic | 0.91
12 | CCS(=O)(=O)c1ccc2cnc(NCc3ccc(C(F)(F)F)cc3)nc2c1 | Toxic | 1.51
13 | CS(=O)(=O)c1ccc2nc(Nc3ccc(F)cc3)ncc2c1 | Toxic | 1.06
14 | CCS(=O)(=O)c1ccc2nc(NCc3ccc(C(C)(C)C)cc3)ccc2c1 | Toxic | 0.9
15 | CS(=O)(=O)c1ccc2nc(NCc3ccncc3)ccc2c1 | Toxic | 1.42
16 | COc1ccc(CNc2ccc3cc(S(C)(=O)=O)ccc3n2)cc1 | Toxic | 0.94
17 | CS(=O)(=O)c1ccc2cnc(NCc3ccc(F)cc3)nc2c1 | Toxic | 0.95
18 | CC(C)(C)c1ccc(CNc2ncc3cc(S(C)(=O)=O)ccc3n2)cc1 | Toxic | 1.19
19 | CCS(=O)(=O)c1ccc2nc(NCc3ccc(O)cc3)ccc2c1 | Toxic | 0.98
20 | CCS(=O)(=O)c1ccc2nc(Nc3ccc4c(c3)OCO4)ccc2c1 | Toxic | 0.98
21 | CCS(=O)(=O)c1ccc2nc(Nc3ccc4c(c3)OCO4)ncc2c1 | Toxic | 0.6
22 | CCS(=O)(=O)c1ccc2nc(Nc3ccc(F)cc3)ccc2c1 | Toxic | 0.98

Row | SMILES | Activity (C2C12) | fold change (FC) [1]
23 | CCS(=O)(=O)c1ccc2nc(Nc3ccc(C(C)(C)C)cc3)ccc2c1 | Toxic | 0.93
24 | CCS(=O)(=O)c1ccc2nc(NCc3ccc(C(C)(C)C)cc3)ncc2c1 | Toxic | 1.07
25 | CCS(=O)(=O)c1ccc2nc(Nc3cc(O)cc(O)c3)ccc2c1 | Toxic | 1.02
26 | CS(=O)(=O)c1ccc2nc(NCc3ccc(O)cc3)ncc2c1 | Toxic | 1.09
27 | CCS(=O)(=O)c1ccc2nc(NCCc3cc4ccccc4[nH]3)ncc2c1 | Toxic | 1.73
28 | CCS(=O)(=O)c1ccc2nc(Nc3cc(OC)cc(OC)c3)ncc2c1 | Toxic | 1.52
29 | COc1ccc(Nc2ccc3cc(S(C)(=O)=O)ccc3n2)cc1 | Toxic | 0.87
30 | CS(=O)(=O)c1ccc2nc(NCc3ccc4c(c3)OCO4)ccc2c1 | Toxic | 0.97
31 | CCS(=O)(=O)c1ccc2nc(Nc3ccc(C(C)(C)C)cc3)ncc2c1 | Toxic | 1.13
32 | CCS(=O)(=O)c1ccc2nc(NCc3cc(OC)cc(OC)c3)ncc2c1 | Toxic | 1.62
33 | CS(=O)(=O)c1ccc2nc(Nc3ccc(O)cc3)ccc2c1 | Toxic | 1.03
34 | CCS(=O)(=O)c1ccc2nc(Nc3ccc(OC)cc3)ncc2c1 | Toxic | 1.09
35 | CCS(=O)(=O)c1ccc2nc(NCc3ccncc3)ccc2c1 | Toxic | 1.73
36 | CS(=O)(=O)c1ccc2nc(NCc3ccc(O)cc3)ccc2c1 | Toxic | 1.07
37 | CCS(=O)(=O)c1ccc2nc(NCc3ccc(OC)cc3)ncc2c1 | Toxic | 1.01
38 | COc1ccc(CNc2ncc3cc(S(C)(=O)=O)ccc3n2)cc1 | Non-Toxic | 1.11
39 | CCS(=O)(=O)c1ccc2cnc(NCc3ccc(F)cc3)nc2c1 | Toxic | 0.67
40 | CS(=O)(=O)c1ccc2nc(NCc3ccc(C(F)(F)F)cc3)ccc2c1 | Toxic | 1.27
41 | CCS(=O)(=O)c1ccc2nc(Nc3ccc(O)cc3)ncc2c1 | Toxic | 1.08
42 | COc1cc(Nc2ccc3cc(S(C)(=O)=O)ccc3n2)cc(OC)c1 | Toxic | 1.32
43 | CS(=O)(=O)c1ccc2nc(Nc3ccc(C(F)(F)F)cc3)ccc2c1 | Toxic | 0.93
44 | CCS(=O)(=O)c1ccc2nc(Nc3cc(OC)cc(OC)c3)ccc2c1 | Toxic | 1.17

Row | SMILES | Activity (C2C12) | fold change (FC) [1]
45 | CS(=O)(=O)c1ccc2nc(NCc3ccc(C(F)(F)F)cc3)ncc2c1 | Toxic | 1.27
46 | COc1cc(CNc2ccc3cc(S(C)(=O)=O)ccc3n2)cc(OC)c1 | Toxic | 1.26
47 | CCS(=O)(=O)c1ccc2nc(Nc3ccc(O)cc3)ccc2c1 | Toxic | 0.93
48 | COc1cc(Nc2ncc3cc(S(C)(=O)=O)ccc3n2)cc(OC)c1 | Toxic | 1.6
49 | CCS(=O)(=O)c1ccc2nc(Nc3ccc(F)cc3)ncc2c1 | Toxic | 1.23
50 | COc1cc(CNc2ncc3cc(S(C)(=O)=O)ccc3n2)cc(OC)c1 | Toxic | 1.67
51 | CS(=O)(=O)c1ccc2nc(Nc3ccc(C(F)(F)F)cc3)ncc2c1 | Toxic | 1.06
52 | CCS(=O)(=O)c1ccc2nc(NCc3ccc(OC)cc3)ccc2c1 | Toxic | 0.89
53 | CS(=O)(=O)c1ccc2nc(Nc3cc(O)cc(O)c3)ccc2c1 | Toxic | 1.08
54 | CCS(=O)(=O)c1ccc2nc(NCc3cc(OC)cc(OC)c3)ccc2c1 | Toxic | 1.42
55 | CCS(=O)(=O)c1ccc2nc(NCc3ccc4c(c3)OCO4)ccc2c1 | Toxic | 0.98
56 | CCS(=O)(=O)c1ccc2nc(NCc3ccc(F)cc3)ncc2c1 | Toxic | 1.4
57 | CCS(=O)(=O)c1ccc2nc(Nc3ccc(C(F)(F)F)cc3)ccc2c1 | Toxic | 0.94
58 | CCS(=O)(=O)c1ccc2nc(NCc3ccc(O)cc3)ncc2c1 | Toxic | 1.12
59 | CS(=O)(=O)c1ccc2cnc(NCc3ccc(C(F)(F)F)cc3)nc2c1 | Toxic | 1.8
60 | CCS(=O)(=O)c1ccc2nc(NCc3ccc(C(F)(F)F)cc3)ccc2c1 | Toxic | 1.16
61 | CCS(=O)(=O)c1ccc2nc(NCc3ccc(F)cc3)ccc2c1 | Toxic | 1.2
62 | CC(C)(C)c1ccc(CNc2ccc3cc(S(C)(=O)=O)ccc3n2)cc1 | Toxic | 0.99
63 | CCS(=O)(=O)c1ccc2nc(NCc3ccncc3)ncc2c1 | Toxic | 1.77
64 | CCS(=O)(=O)c1ccc2nc(Nc3ccc(OC)cc3)ccc2c1 | Toxic | 1.09
65 | COc1ccc(Nc2ncc3cc(S(C)(=O)=O)ccc3n2)cc1 | Toxic | 1.05
66 | CS(=O)(=O)c1ccc2nc(NCCc3cc4ccccc4[nH]3)ncc2c1 | Toxic | 1.81
